From PubChem BioAssay (NCI)
Several values for one entry are separate records, joined by “and”; a condition that tells them apart may be missing. Equal entries are not always repeated.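 Tested at 5 concentrations; 48 h exposure; 96-well plates; endpoints linearly interpolated, else capped at highest concentration. GI50 = concentration required for 50% inhibition of growth. Definition used: TGI = concentration required for complete inhibition of growth.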 *1 amine or outer side, *2 acyl side, *3 side chain or, on linkers, in order; H or OH if unused. Where a SMILES comes first, the peptide text is derived from it. Bridges are numbered along the chain shown (N, C = ends). [ ]: non-standard residue; d: D form. The star is where a group is joined. X38 = CC[C@H](C)[C@@H](N[*:1])[C@@H](O)CC(=O)[*:2]; NMeY = CN[C@@H](Cc1ccc(O)cc1)C(=O)O; dNMeL = CN[C@H](CC(C)C)C(=O)O; Hiv = CC(C)[C@H](O)C(=O)O; Pyruvoyl = CC(=O)C(=O)*

How the values were obtained:
Assay in all cases: inhibition of tumour cell growth, NCI panel, 48 h
A549 NSCLC = tested on: A549 NSCLC
ACHN renal = tested on: ACHN renal
MDA-MB-435 = tested on: MDA-MB-435
HT29 colon = tested on: HT29 colon
OVCAR-5 ovarian = tested on: OVCAR-5 ovarian
BT-549 breast = tested on: BT-549 breast
UACC-62 melanoma = tested on: UACC-62 melanoma
NCI-H460 lung = tested on: NCI-H460 lung
RPMI-8226 leukemia = tested on: RPMI-8226 leukemia
MOLT-4 leukemia = tested on: MOLT-4 leukemia

| SMILES | TGI (A549 NSCLC) | TGI (ACHN renal) | TGI (MDA-MB-435) | TGI (HT29 colon) | TGI (OVCAR-5 ovarian) | TGI (BT-549 breast) | TGI (UACC-62 melanoma) | TGI (NCI-H460 lung) | TGI (RPMI-8226 leukemia) | TGI (MOLT-4 leukemia) | GI50 (ACHN renal) | GI50 (MDA-MB-435) | GI50 (HT29 colon) | GI50 (OVCAR-5 ovarian) | GI50 (BT-549 breast) | GI50 (UACC-62 melanoma) | GI50 (NCI-H460 lung) | GI50 (MOLT-4 leukemia) |
| --- | --- | --- | --- | --- | --- | --- | --- | --- | --- | --- | --- | --- | --- | --- | --- | --- | --- | --- |
| Fc1cc(C2=C[C@H](c3ccc(Cl)cc3)NC(=S)N2)c(Cl)cc1Cl | > 100 µM | > 100 µM | > 100 µM | > 100 µM | > 100 µM | > 100 µM | > 100 µM | > 100 µM | 56.2 µM | > 100 µM | – | – | – | – | – | – | – | – |
| Nc1ccn(C2CC(O)C(COP(O)(=S)OC3CC(n4ccc(N)nc4=O)OC3CO)O2)c(=O)n1 (stereo not drawn) | > 100 µM | > 100 µM | > 100 µM | > 100 µM | > 100 µM | > 100 µM | > 100 µM | > 100 µM | > 100 µM | > 100 µM | – | – | – | – | – | – | – | – |
| Cc1c2cnccc2c(C)c2c1[nH]c1ccc(O)cc12 | > 10 µM | 8.29 µM | 8.73 µM | > 10 µM | > 10 µM | > 10 µM | > 10 µM | 2.63 µM | > 10 µM | > 10 µM | – | – | – | – | – | – | – | – |
| O=C(O)C1C(C(=O)O)C2C(=O)C=CC1N2Cc1ccccc1 (stereo not drawn) | 22.4 µM | 14.2 µM | 13.4 µM | 12.6 µM | 20.5 µM | 17.4 µM | 21.3 µM | 5.1 µM | 13.6 µM | 9.18 µM | – | – | – | – | – | – | – | – |
| c1csc(-c2cscc2-c2ccsc2)c1 | > 100 µM | > 100 µM | > 68 µM | > 100 µM | > 100 µM | > 100 µM | > 100 µM | > 100 µM | > 100 µM | > 100 µM | – | – | – | – | – | – | – | – |
| COc1ccc(/C=C(\Cl)c2ccc(OC)c(OC)c2)cc1OC | > 100 µM | > 100 µM | > 100 µM | > 100 µM | > 100 µM | > 100 µM | > 100 µM | > 100 µM | > 100 µM | > 100 µM | – | – | – | – | – | – | – | – |
| C[C@H]1[C@H](C)N(Cc2ccccc2)P(=O)(C(O)/C=C/c2ccccc2)N1Cc1ccccc1 (stereo partly drawn) | > 25 µM | > 25 µM | 8.79 µM | 12.3 µM | 18.8 µM | > 25 µM | 8.13 µM | 10.2 µM | 15.6 µM | > 25 µM | – | – | – | – | – | – | – | – |
| CCOC(=O)c1nc2ccc(C(F)(F)F)cc2nc1NCc1ccc(Cl)c(Cl)c1 | > 100 µM | 68 µM | 56.7 µM | 90.9 µM | > 100 µM | > 100 µM | > 100 µM | > 100 µM | > 100 µM | > 100 µM | – | – | – | – | – | – | – | – |
| COc1cc2cc(C(=O)N3CC(CCl)c4c3cc(NC(=O)C(C)(C)c3ccccc3[N+](=O)[O-])c3ccccc43)[nH]c2c(OC)c1OC (stereo not drawn) | > 600 µM | – | – | 50 µM and 203 µM | – | 30.4 µM and 213 µM | – | 1.64 µM and 15.5 µM | > 600 µM | – | 2.63 µM | 91.7 µM | 14.5 µM | 119 µM | 26.1 µM | 25.4 µM | 0.825 µM | 33.7 µM |
| COc1ccc(Br)c2c1CC(C(=O)O)CC2 (stereo not drawn) | > 100 µM | > 100 µM | > 100 µM | > 100 µM | > 100 µM | > 100 µM | > 100 µM | > 100 µM | > 100 µM | > 100 µM | – | – | – | – | – | – | – | – |
| O=C1c2cc3c(cc2CC12Cc1cc4c(cc1C2=O)CCCC4)CCCC3 | > 100 µM | > 100 µM | > 100 µM | > 100 µM | > 100 µM | > 100 µM | > 100 µM | > 100 µM | > 100 µM | > 100 µM | – | – | – | – | – | – | – | – |
| Clc1cccc(Cl)c1C=NC12CC3CC(CC(C3)C1)C2 | > 10 µM | > 10 µM | > 10 µM | > 10 µM | > 10 µM | > 10 µM | > 10 µM | > 10 µM | > 10 µM | > 10 µM | – | – | – | – | – | – | – | – |
| COc1ccc(C2c3cc4c(cc3C(O)C3CCC(=O)N23)OCO4)cc1 (stereo not drawn) | > 100 µM | > 100 µM | > 100 µM | > 100 µM | > 100 µM | > 100 µM | > 100 µM | > 100 µM | > 100 µM | > 100 µM | – | – | – | – | – | – | – | – |
| CCCCc1ccc(Nc2nc(Cl)c3c(ncn3COCCOC(C)=O)n2)cc1 | 41 µM | 35.8 µM | 32.9 µM | 34.9 µM | 37.5 µM | 31.4 µM | 31.1 µM | 34.4 µM | > 100 µM | 42.5 µM | – | – | – | – | – | – | – | – |
| CC[C@H](C)[C@H]1NC(=O)[C@@H](NC(=O)[C@@H](CC(C)C)N(C)C(=O)[C@@H]2CCCN2C(=O)C(C)=O)[C@@H](C)OC(=O)[C@H](Cc2ccc(OC)cc2)N(C)C(=O)[C@@H]2CCCN2C(=O)[C@H](CC(C)C)NC(=O)[C@H](C(C)C)OC(=O)C[C@@H]1O (Pyruvoyl-P[dNMeL]T[X38][Hiv]LP[NMeY](Me); ester 3-C) | 0.0618 µM | 0.438 µM | 0.158 µM | 0.0795 µM | 0.167 µM | 0.0181 µM | 0.0299 µM | 0.0321 µM | 0.0465 µM | 0.0373 µM | – | – | – | – | – | – | – | – |
| Cc1nc2sc(CCl)nn2c(=O)c1Cl | 29.6 µM | 29.3 µM | 18.3 µM | 26.2 µM | 28.7 µM | 15.6 µM | 36.2 µM | 25.3 µM | 24.4 µM | 26.7 µM | – | – | – | – | – | – | – | – |
